# Assay results published in ChEMBL document CHEMBL1201862, “PubChem BioAssay data set” (2004).
# Active and inactive are the calls of the source.
# Columns and labels:
# [1] = molecular target: Serine/threonine-protein phosphatase (Candida dubliniensis (strain CD36 / CBS 7987 / NCPF 3949 / NRRLY-17841) (Yeast), UniProt B9W6M3); test: blockers of CaCl2-induced CDRE-lacZ signaling – S. cerevisiae, luminescence, secondary, dose response (AID 2388); assay type: functional, cell-based;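 further: yeast reporter cells carrying a calcineurin-responsive lacZ construct stimulated with calcium chloride; luminescent beta-galactosidase reporter signal in whole cells rather than isolated phosphatase activity; potency for inhibition where a drop in reporter signal means calcineurin blockade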
# Chain of Serine/threonine-protein phosphatase (B9W6M3 whole entry): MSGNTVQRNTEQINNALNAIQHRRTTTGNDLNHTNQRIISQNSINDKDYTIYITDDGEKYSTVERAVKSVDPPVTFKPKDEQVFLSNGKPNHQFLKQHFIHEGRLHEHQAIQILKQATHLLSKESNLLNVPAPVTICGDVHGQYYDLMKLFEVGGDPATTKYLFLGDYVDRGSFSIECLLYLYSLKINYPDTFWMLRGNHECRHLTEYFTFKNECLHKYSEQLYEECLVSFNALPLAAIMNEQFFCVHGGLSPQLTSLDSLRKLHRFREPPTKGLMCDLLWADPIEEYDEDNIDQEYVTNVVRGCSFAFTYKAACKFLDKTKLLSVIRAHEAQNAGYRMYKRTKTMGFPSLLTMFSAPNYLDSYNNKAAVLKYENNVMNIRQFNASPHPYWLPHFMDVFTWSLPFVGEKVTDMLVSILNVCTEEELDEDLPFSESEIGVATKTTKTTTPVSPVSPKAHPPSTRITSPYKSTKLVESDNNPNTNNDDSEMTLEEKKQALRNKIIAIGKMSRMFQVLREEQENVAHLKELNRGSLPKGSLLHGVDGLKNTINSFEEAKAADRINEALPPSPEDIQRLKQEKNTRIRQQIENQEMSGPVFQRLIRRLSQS
# [2] = test system: INS1; test: INS-1E survival protection against cytokine death – cell-based, luminescence, retest, dose response (AID 449756); assay type: functional; conditions: Rattus norvegicus;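 further: cell death triggered by IL-1 beta plus TNF-alpha plus IFN-gamma mixture; protective hits raise ATP signal compared with cytokine alone wells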
# [3] = molecular target: ATP-dependent molecular chaperone HSP82 (Candida albicans (strain WO-1) (Yeast), UniProt C4YTQ8); test: steroid-induced GRE reporter decrease in yeast – S. cerevisiae, luminescence, Hsp90 inhibitor project, dose response (AID 2400); assay type: functional, cell-based;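 further: beta-galactosidase luminescence from glucocorticoid response element reporter as proxy for Hsp90 function; inhibitor potency where signal loss means Hsp90 inhibition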
# Chain of ATP-dependent molecular chaperone HSP82 (C4YTQ8 whole entry): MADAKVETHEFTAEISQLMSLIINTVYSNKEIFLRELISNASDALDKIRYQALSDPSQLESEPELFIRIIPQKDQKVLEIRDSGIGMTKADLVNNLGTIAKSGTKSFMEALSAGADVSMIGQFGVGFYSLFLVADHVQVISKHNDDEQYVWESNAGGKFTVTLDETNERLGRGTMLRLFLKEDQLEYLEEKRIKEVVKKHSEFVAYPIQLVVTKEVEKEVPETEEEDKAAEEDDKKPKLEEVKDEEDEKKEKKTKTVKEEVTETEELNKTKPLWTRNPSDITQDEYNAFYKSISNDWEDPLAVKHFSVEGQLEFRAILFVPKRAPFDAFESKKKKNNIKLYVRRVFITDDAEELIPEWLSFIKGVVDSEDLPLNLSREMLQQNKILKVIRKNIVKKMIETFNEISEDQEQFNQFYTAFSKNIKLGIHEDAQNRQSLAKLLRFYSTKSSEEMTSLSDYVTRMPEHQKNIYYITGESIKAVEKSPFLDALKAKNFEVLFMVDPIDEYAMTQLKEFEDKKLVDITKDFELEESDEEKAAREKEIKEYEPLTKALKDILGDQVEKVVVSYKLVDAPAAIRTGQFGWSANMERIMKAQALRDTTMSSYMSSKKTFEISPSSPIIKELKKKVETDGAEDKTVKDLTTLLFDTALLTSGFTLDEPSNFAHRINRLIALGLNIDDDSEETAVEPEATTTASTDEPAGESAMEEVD
# [4] = test system: HEK293; test: EBV LMP1 TES2 canonical NF-kB signalling blockers – cell-based, HEK293, luciferase, cherry-pick, dose response (AID 588343); assay type: functional; conditions: Homo sapiens
# [5] = cells; assay type: functional, cell-based
# [6] = molecular target: Heat shock protein HSP 90-alpha (Homo sapiens, UniProt P07900); assay type: functional, organism-based
# [7] = fluconazole-exposed Candida albicans growth modulators – fluorescence, retest, confirmation (AID 2467); assay type: functional, cell-based
# [8] = luciferase reporter signal suppression in cells – H4 neuroglioma cells, luminescence, dose response (AID 1990); assay type: functional, cell-based
# [9] = test system: Streptococcus sp. 'group A'; test: Streptococcus pyogenes SK(-)GAS viability under kanamycin – luminescence, BacTiterGlo, confirmation, counter-screen for streptokinase expression inhibitor project, dose response (AID 1900); assay type: functional, organism-based
# [10] = test system: Streptococcus; test: GAS UMAA2166 growth inhibition – luminescence, BacTiterGlo, counter-screen for streptokinase expression inhibitor project, dose response (AID 1915); assay type: functional, organism-based;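 further: potency for reduction of bacterial viability or growth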
# [11] = molecular target: T1, Streptokinase A (Streptococcus pyogenes serotype M1, UniProt P10520); test: viability-normalized secreted streptokinase activity reduction – plasminogen activation absorbance, OD405, dose response (AID 1914); assay type: functional, Streptococcus pyogenes M1 GAS;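 further: secreted streptokinase activity via plasminogen activation per viability signal from cell pellet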
# T1 sequence (P10520 whole entry): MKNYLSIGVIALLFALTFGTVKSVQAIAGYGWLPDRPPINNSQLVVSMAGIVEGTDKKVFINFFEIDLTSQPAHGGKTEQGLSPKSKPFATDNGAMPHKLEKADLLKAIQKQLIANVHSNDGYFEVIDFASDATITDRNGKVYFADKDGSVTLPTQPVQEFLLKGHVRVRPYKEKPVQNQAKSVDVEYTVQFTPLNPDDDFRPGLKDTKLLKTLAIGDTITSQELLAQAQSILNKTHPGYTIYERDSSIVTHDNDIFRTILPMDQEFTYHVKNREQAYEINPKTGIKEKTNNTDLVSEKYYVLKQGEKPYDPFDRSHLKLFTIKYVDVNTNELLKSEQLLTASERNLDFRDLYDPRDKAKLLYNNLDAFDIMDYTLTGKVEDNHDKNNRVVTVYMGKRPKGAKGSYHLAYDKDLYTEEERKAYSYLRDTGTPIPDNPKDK
# [12] = Luminescence Cell-Based Dose Response HTS to Identify Inhibitors of 5'UTR Stem-Loop Driven Prion Protein mRNA Translation in H4 Neuroglioblastoma Cells. [Related pubchem assays: 1827 (Project Summary), 1813 (Primary HTS)]; assay type: functional
# [13] = molecular target: T2, Rac GTPase-activating protein 1 (Homo sapiens, UniProt Q9H0H5); test: blockers of MgcRacGAP-driven Rac1 GTP hydrolysis – biochemical, ADP Hunter fluorescence, primary and confirmatory, confirmation (AID 624330); assay type: functional
# T2 sequence (Q9H0H5 whole entry): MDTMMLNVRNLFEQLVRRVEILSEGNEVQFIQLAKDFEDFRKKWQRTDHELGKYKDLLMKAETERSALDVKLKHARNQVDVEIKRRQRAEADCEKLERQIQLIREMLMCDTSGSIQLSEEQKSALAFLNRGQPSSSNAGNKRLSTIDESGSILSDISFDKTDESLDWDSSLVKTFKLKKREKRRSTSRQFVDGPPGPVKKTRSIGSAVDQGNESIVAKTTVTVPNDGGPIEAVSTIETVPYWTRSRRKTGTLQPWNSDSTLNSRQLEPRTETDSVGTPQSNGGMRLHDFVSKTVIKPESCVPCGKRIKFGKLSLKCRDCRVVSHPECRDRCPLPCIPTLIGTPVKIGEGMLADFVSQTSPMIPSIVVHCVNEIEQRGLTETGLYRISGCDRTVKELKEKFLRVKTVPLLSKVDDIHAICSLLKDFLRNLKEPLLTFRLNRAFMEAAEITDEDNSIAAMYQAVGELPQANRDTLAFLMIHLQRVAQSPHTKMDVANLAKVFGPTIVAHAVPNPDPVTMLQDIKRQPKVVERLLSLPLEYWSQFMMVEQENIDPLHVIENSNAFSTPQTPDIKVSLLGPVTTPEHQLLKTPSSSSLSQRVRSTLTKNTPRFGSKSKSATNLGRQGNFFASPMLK
# [14] = alpha-synuclein stem-loop luciferase translation blockers – H4 neuroglioma cells, luminescence, confirmation (AID 1988); assay type: functional, cell-based
# [15] = cells; assay type: functional, cell-based; remark: listed apart in the source
# [16] = NIH-3T3 fibroblast cytotoxicity, dose response, cytotoxicity control, cell-based, fluorescence, Alamar Blue, secondary assay (AID 2327); assay type: functional;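 further: NIH-3T3 mouse fibroblasts cultured with fluconazole at 8 µg/mL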
# [17] = molecular target: T3, Microphthalmia-associated transcription factor (Homo sapiens, UniProt O75030); test: reducers of TRPM1 reporter luminescence, concentration series – cell-based, SK-MEL-5, cherry-picked, set 3, MITF inhibitor project, dose response (AID 493073); assay type: functional;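 further: SK-MEL-5 melanoma cells with luciferase driven by the MITF target TRPM1 promoter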
# T3 sequence (O75030 whole entry): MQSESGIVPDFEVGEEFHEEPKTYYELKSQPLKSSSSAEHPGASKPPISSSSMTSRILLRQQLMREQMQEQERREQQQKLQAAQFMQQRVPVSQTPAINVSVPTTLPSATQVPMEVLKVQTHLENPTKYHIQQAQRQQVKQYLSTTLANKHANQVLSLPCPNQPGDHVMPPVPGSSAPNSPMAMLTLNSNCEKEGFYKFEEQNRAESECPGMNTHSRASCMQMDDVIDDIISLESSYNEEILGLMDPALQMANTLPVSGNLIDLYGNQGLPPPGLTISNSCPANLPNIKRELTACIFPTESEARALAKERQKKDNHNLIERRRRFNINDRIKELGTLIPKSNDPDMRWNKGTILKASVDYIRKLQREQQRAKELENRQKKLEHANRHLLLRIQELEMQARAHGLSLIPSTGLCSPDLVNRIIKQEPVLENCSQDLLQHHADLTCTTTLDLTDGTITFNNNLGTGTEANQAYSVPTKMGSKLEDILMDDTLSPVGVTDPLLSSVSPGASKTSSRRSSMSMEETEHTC
# [18] = THP-1 cell cytotoxicity, dose response, cytotoxicity control for non-replicating M. tuberculosis project (AID 489025); assay type: functional
# [19] = test system: A-375; test: proliferation inhibition in MITF-low A375 cells – cell-based, cherry-pick samples, set 2, counter-screen for MITF modulator project, dose response (AID 540335); assay type: functional; conditions: Homo sapiens
# [20] = reduction of Shn3 3'UTR-driven luciferase in osteoblasts – cell-based, Clone20 osteoblasts, firefly luciferase, cherry-picked, dose response (AID 624132); assay type: functional;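 further: firefly luciferase luminescence from reporter carrying the Shn3 3'UTR in osteoblasts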
# [21] = cells; assay type: functional
# [22] = test system: A-375; test: MITF: Counter assay: A375 proliferation Measured in Cell-Based System Using Plate Reader - 2084-03_Inhibitor_Dose_DryPowder_Activity. [Related pubchem assays (depositor defined):AID488944]; assay type: functional; conditions: Homo sapiens
# [23] = loss of viability in HepG2 cells – cell-based, CellTiter-Glo, cherry-picked, cytotoxicity control for Shn3 inhibitor project, dose response (AID 624134); assay type: functional
# [24] = non-specific 3'UTR reporter inhibition in Clone20-Shn3RL – cell-based, Renilla luciferase, cherry-picked, counter-screen for Shn3 inhibitor project, dose response (AID 624133); assay type: functional
# [25] = test system: CHO; test: CHO cell viability loss, potency – luminescence, cytotoxicity control for TLR9-MyD88 binding inhibitor project, dose response (AID 588339); assay type: functional, cell-based, hamster; conditions: Cricetulus griseus;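 further: CHO cells stably coexpressing TLR9 and MyD88 fusions from primary screen; compound exposure lasted 48 hours before viability readout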
# [26] = molecular target: T4, Heat shock factor protein 1 (Mus musculus, UniProt P38532); test: enhancement of HSF1-driven luciferase signal – cell-based, NIH3T3, luminescence, dose retest, confirmation (AID 435004); assay type: functional;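 further: stress induced by proteasome inhibitor MG132 added 30 min after compound; luciferase reporter driven by HSF1 response element in NIH3T3 cells; actives raise luminescence as potentiators of the MG132 stress response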
# T4 sequence (P38532 whole entry): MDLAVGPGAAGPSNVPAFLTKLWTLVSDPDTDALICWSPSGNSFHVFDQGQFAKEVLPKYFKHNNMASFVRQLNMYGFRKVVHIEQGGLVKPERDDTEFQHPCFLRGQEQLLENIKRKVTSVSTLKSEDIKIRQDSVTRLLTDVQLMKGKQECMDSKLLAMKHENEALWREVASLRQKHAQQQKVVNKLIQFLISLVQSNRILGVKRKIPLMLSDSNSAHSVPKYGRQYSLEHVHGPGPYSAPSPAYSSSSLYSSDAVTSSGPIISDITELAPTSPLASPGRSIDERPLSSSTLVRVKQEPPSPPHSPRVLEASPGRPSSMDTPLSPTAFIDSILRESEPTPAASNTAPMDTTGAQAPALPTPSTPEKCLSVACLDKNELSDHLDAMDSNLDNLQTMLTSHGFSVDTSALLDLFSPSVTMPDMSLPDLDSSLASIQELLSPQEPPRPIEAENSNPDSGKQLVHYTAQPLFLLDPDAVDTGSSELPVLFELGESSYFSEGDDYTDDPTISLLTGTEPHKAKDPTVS
# [27] = molecular target: Beta Lactamase (Pseudomonas aeruginosa, UniProt Q932Y6); test: BLA reporter interference, concentration series – BLA reporter cells, FRET fluorescence, artefact control for TLR9-MyD88 binding inhibitor project, dose response (AID 588341); assay type: cell-based;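 further: cell based assay in CHO-K1 cells stably expressing beta-lactamase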
# Chain of Beta Lactamase (Q932Y6 whole entry): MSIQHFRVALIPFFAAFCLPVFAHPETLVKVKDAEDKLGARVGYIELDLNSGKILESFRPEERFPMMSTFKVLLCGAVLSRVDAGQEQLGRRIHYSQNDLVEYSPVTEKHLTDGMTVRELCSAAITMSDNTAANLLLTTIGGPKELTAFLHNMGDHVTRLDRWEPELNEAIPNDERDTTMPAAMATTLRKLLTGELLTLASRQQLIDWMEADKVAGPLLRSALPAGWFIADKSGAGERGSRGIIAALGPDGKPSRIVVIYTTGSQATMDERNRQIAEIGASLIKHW
# [28] = Fluorescence polarization-based biochemical high throughput dose response assay for activators of the Protein Kinase A-R1A (PKA-R1A) complex. [Related pubchem assays (depositor defined):AID504704, AID504707, AID504799, AID504800]
# [29] = Fluorescence polarization-based biochemical high throughput dose response assay for activators of the Protein Kinase A-R2B (PKA-R2B) complex. [Related pubchem assays (depositor defined):AID504700, AID504704, AID504796, AID504797]
# [30] = test system: HEK293; test: cells; assay type: functional, cell-based; conditions: Homo sapiens
# [31] = molecular target: Nuclear receptor subfamily 0 group B member 1 (Homo sapiens, UniProt P51843); test: Luminescence-based cell-based high throughput dose response assay for inhibitors of the orphan nuclear receptor subfamily 0, group B, member 1 (DAX1; NR0B1). [Related pubchem assays (depositor defined):AID504766, AID504790]; assay type: functional
# Chain of Nuclear receptor subfamily 0 group B member 1 (P51843 whole entry): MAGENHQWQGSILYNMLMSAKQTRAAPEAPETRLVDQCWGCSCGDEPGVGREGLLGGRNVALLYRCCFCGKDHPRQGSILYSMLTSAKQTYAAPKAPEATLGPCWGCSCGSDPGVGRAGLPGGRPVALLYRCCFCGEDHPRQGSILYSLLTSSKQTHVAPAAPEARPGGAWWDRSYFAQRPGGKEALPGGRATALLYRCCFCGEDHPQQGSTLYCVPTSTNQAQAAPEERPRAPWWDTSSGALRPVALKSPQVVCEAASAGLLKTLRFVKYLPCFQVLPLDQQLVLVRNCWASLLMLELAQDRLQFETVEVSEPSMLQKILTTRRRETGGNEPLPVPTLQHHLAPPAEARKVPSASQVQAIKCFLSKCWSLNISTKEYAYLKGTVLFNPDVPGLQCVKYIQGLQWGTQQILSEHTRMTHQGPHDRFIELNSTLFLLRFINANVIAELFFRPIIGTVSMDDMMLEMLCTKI
# [32] = test system: INS1; test: INS-1E mitochondrial potential rescue under cytokines – cell-based, JC-1 fluorescence ratio, dry powder, dose response (AID 488931); assay type: functional; conditions: Rattus norvegicus
# [33] = DRD fibroblast viability loss – cell-based, non-viral oncogenic, luminescence, dose response (AID 1934); assay type: functional; conditions: Homo sapiens
# [34] = test system: BJ; test: cells; assay type: functional, cell-based; conditions: Homo sapiens
# [35] = Luminescence Cell-Based Dose Retest to Confirm Inhibitors of Cancer Stem Cells. [Related pubchem assays (depositor defined):AID2717, AID2721]; assay type: functional; conditions: Homo sapiens
# [36] = test system: BJ; test: BJ-TERT-LT-ST fibroblast viability loss – cell-based, RAS-independent, luminescence, dose response (AID 1935); assay type: functional; conditions: Homo sapiens;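 further: BJ fibroblasts immortalized with TERT plus LT and ST oncogenes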
# [37] = test system: BJ; test: BJ-TERT fibroblast viability loss – cell-based, RAS-independent, luminescence, dose response (AID 1933); assay type: functional; conditions: Homo sapiens
# [38] = test system: Escherichia coli; test: microbe, parasite or virus in culture
structure (smiles),measurement,setting,value
O=C(N/N=C/c1sc2ccccc2c1O)c1cccc2ccccc12,EC50,[1],> 180 µM (inactive)
same,AC50,[2],1.1 µM (active)
same,EC50,[3],9.14 µM (active)
same,AC50,[4],5.14 µM (active)
same,EC50,[5],> 350 µM (not active)
same,AC50,[6],14 µM (active)
same,EC50,[7],0.738 µM (active)
same,EC50,[8],10.6 µM (active)
same,EC50,[9],3.44 µM (active)
same,EC50,[10],12.4 µM (active)
same,EC50,[11],> 150 µM (not active)
same,EC50,[12],10.4 µM (active)
same,IC50,[13],52.9 µM (active)
same,EC50,[14],9 µM (active)
same,EC50,[15],12.5 µM (active)
same,EC50,[16],> 160 µM (inactive)
CCOC(=O)COc1ccc2ccccc2c1/C=C/[N+](=O)[O-],AC50,[2],> 60 µM (inactive)
same,AC50,[17],8.17 µM (active)
same,CC50,[18],19.1 µM (active)
same,AC50,[19],> 35 µM (active)
same,AC50,[20],5.2 µM (active)
same,AC50,[6],4.28 µM (active)
same,IC50,[21],2.81 µM (active)
same,AC50,[22],> 35 µM (active)
same,AC50,[23],20.9 µM (active)
same,AC50,[24],12.9 µM (active)
same,IC50,[25],2.72 µM (active)
same,EC50,[26],3.33 µM (inconclusive)
same,IC50,[27],30.5 µM (inactive)
CCCC(=O)Nc1ncnc2c1ncn2[C@@H]1O[C@@H]2COP(=O)(O)O[C@H]2[C@H]1OC(=O)CCC,EC50,[28],4.48 µM (active)
same,EC50,[29],5.38 µM (active)
Cc1cnc(C(=O)OCC(=O)NCCCc2ccccc2)cn1,IC50,[30],> 67.5 µM (inactive)
same,IC50,[31],> 67.5 µM (inactive)
C[C@@H]1CN([C@@H](C)CO)C(=O)c2cccc(NC(=O)Nc3cccc4ccccc34)c2O[C@H]1CN(C)S(C)(=O)=O,AC50,[32],> 195 µM (inactive)
COCCNC(=O)c1cnc2ccc(S(=O)(=O)N3CCc4ccccc43)cc2c1O,EC50,[33],11.5 µM (active)
same,EC50,[34],7.76 µM (active)
same,AC50,[35],2.32 µM (active)
same,EC50,[36],> 150 µM (not active)
same,EC50,[37],> 150 µM (not active)
same,AC50,[38],87.7 µM (active)
